Earlier results on two compounds are cited in PMC7004151, “Synthesis and Structure‐Activity Relationships of N‐(4‐Benzamidino)‐Oxazolidinones: Potent and Selective Inhibitors of Kallikrein‐Related Peptidase 6” (Chemmedchem, 2019).

The subject of this series is KLK6. As to conditions: cited from earlier work.

What is called IC50 is the concentration at which inhibition is half-maximal. On to `NCc1ccc(NC(=O)c2c([O-])ccc[n+]2Cc2nccn2Cc2ccccc2)cc1` [Compound 1], for which the IC50 (published KLK6 inhibitors ref 18) was 1.8 µM. With `O=C(Oc1cc(Cl)ccc1Cl)c1cc2cc(Cl)ccc2oc1=O` [Compound 4], the kinact/Ki (covalent coumarin-based suicide inhibitor ref 20) was 131 ± 13 M⁻¹ s⁻¹.
